“Also recorded” adds a separate entry of the source. l = locked nucleic acid (LNA); [5mC] = 5-methylcytosine; d = 2'-deoxy (DNA)
How the values were obtained:
Assay type in all cases: physicochemical
[1] = Dissolution profile of tablets comprising Form A sodium caprate and a macromolecule; details: Example 12 Formulation 1 tablets; pH 6.8 phosphate buffer at 37° C.; FIGS. 20A-20B
Description: The dissolution profiles of tablets comprising Form A sodium caprate and an ASO, prepared according to Example 12, Formulation 1, are illustrated in FIG. 20A. […] (mimicking the small intestinal condition). This allows for maximum absorption enhancement. The dissolution profile of tablets comprising Form A sodium caprate and the MEDI7219 Peptide is illustrated in FIG. 20B. […] (mimicking the small intestinal condition).

[2] = Karl Fischer titration, water content of sodium caprate forms; details: forms prepared as in Example 1
Experimental: In some embodiments, the water content of sodium caprate is determined by Karl Fischer titration. Karl Fischer titration uses coulometric or volumetric titration to determine trace amounts of water in a sample. Methods of performing Karl Fischer titration are known to the skilled artisan. In some embodiments, Form A or Form B sodium caprate has a lower water content compared with Form C or Form D water content. In some embodiments, the sodium caprate is Form A sodium caprate characterized by a water content by Karl Fischer titration below 2%, below 1.9%, below 1.8%, below 1.7%, below 1.6%, below 1.5%, or below 1.4%. In some embodiments, Form A sodium caprate has a water content of about 0.4% to about 1.7%. Form B sodium caprate has a water content ≤1%. Form C sodium caprate has a water content of about 2% to about 3%, and Form D sodium caprate has a water content of about 2.5% to about 4%. In some embodiments, the sodium caprate used for making the oral tablet has a water content of less than about 2% as measured by Karl Fischer titration. In some embodiments, the sodium caprate has a water content of less than about 1.5%. In some embodiments, the sodium caprate has a water content of about 1%, about 1.1%, about 1.2%, about 1.3%, about 1.4%, about 1.5%, about 1.6%, about 1.7%, about 1.8%, about 1.9%, or about 2.0%. […]

[3] = Compaction properties (tabletability, tablet tensile strength, compaction simulator) of sodium caprate forms; details: tablets of each form; particle sizes about 37-53, 150-300, 600-710 μm; FIGS. 5A-5C
Experimental: The tabletability of different particle sizes and forms of sodium caprate was obtained by measuring the tensile strength of tablets compressed using a compaction simulator. FIGS. 5A-5C show the results of tabletability with laboratory-scale amounts of sodium caprate with particle sizes of about 37 to 53 μm, of about 150 to 300 μm, and of about 600 to 710 μm, respectively.
Tablets were produced with each of the sodium caprate forms, and compaction properties were assessed.

[4] = as above; details: tablets of each form; high pressure = above approximately 50 MPa

Row | Compound | release (dissolution) from tablets [1] | Amount of Water (%) [2] | compaction properties / tabletability [3] | sticking tendency during tableting [4]
1 | GM5CAttctaatagcAGM5C (antisense GCATTCTAATAGCAGC; sugars from the 5' end l3 d10 l3, [5mC] at 2, 16, backbone not given here) [MALAT1, antisense oligonucleotide targeting MALAT1, with LNA nucleosides and 5-methylcytidine, reference compound] | rapid and concomitant release |  |  | 
2 | CCCCCCCCCC(=O)[O-].[Na+] [Form C, sodium caprate] |  | 2-3% | poor tabletability; also recorded: worst tabletability | high sticking tendency
3 | CCCCCCCCCC(=O)[O-].[Na+] [Form B, sodium caprate] |  |  | poor tabletability | high sticking tendency
4 | CCCCCCCCCC(=O)[O-].[Na+] [Form A, sodium caprate] | rapid and concomitant release |  | best compaction properties | no observable sticking at high pressure
5 | CCCCCCCCCC(=O)[O-].[Na+] [Form D, sodium caprate] |  |  | poor tabletability; also recorded: worst tabletability | high sticking tendency
